Data: the supplement of paper PMC5908809

Legend:
Assay in all cases: relative IC50 (inflection point of fitted viability curve, relative to fitted max inhibition); higher = less sensitive
Conditions in all cases: 72 h
[1] = test system: normal primary NK cells, pool 3 (3 donors) (IL-2 2.5 ng/mL)
Procedure: (§1)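 Drug sensitivity and resistance testing: 5 concentrations over a 10,000-fold range, 72 h at 37 °C, viability by CellTiter-Glo normalised to DMSO and benzethonium chloride controls. IC50 is the inflection point of a logistic fit (min fixed at 0, max fitted), so it is relative to the fitted maximal inhibition. Kept only where fitted max inhibition is at least 50%.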

[2] = test system: normal primary NK cells, pool 2 (3 donors) (IL-2 2.5 ng/mL)
Procedure: as §1

NK-YS (IL-2 2.5 ng/mL) = test system: NK-YS (IL-2 2.5 ng/mL)
Procedure: as §1

DERL-7 (IL-2 2.5 ng/mL) = test system: DERL-7 (IL-2 2.5 ng/mL)
Procedure: as §1

NK-92 (IL-2 2.5 ng/mL) = test system: NK-92 (IL-2 2.5 ng/mL)
Procedure: as §1

KHYG-1 (IL-2 2.5 ng/mL) = test system: KHYG-1 (IL-2 2.5 ng/mL)
Procedure: as §1

KAI3 (IL-2 2.5 ng/mL) = test system: KAI3 (IL-2 2.5 ng/mL)
Procedure: as §1

YT (IL-2 2.5 ng/mL) = test system: YT (IL-2 2.5 ng/mL)
Procedure: as §1

SNK-6 (IL-2 2.5 ng/mL) = test system: SNK-6 (IL-2 2.5 ng/mL)
Procedure: as §1

NKL (IL-2 2.5 ng/mL) = test system: NKL (IL-2 2.5 ng/mL)
Procedure: as §1

IMC-1 (IL-2 20 ng/mL) = test system: IMC-1 (IL-2 20 ng/mL)
Procedure: as §1

[3] = test system: normal primary NK cells, pool 1 (3 donors), resting (IL-2 0 ng/mL)
Procedure: as §1

SMILES | relative IC50 [1] | relative IC50 [2] | relative IC50 (NK-YS (IL-2 2.5 ng/mL)) | relative IC50 (DERL-7 (IL-2 2.5 ng/mL)) | relative IC50 (NK-92 (IL-2 2.5 ng/mL)) | relative IC50 (KHYG-1 (IL-2 2.5 ng/mL)) | relative IC50 (KAI3 (IL-2 2.5 ng/mL)) | relative IC50 (YT (IL-2 2.5 ng/mL)) | relative IC50 (SNK-6 (IL-2 2.5 ng/mL)) | relative IC50 (NKL (IL-2 2.5 ng/mL)) | relative IC50 (IMC-1 (IL-2 20 ng/mL)) | relative IC50 [3]
c1cc(CN2CCCNCCNCCCNCC2)ccc1CN1CCCNCCNCCCNCC1 [Plerixafor] | > 10000 nM | > 10000 nM | – | – | – | – | – | – | – | – | – | –
COc1ccc(-c2ccc3c(N4CCOC[C@@H]4C)nc(N4CCOC[C@@H]4C)nc3n2)cc1CO [AZD8055] | – | – | 77.3 nM | 21.7 nM | 121 nM | 135 nM | 10.3 nM | 55.6 nM | 16.3 nM | 5.08 nM | – | –
CNCc1ccc(-c2[nH]c3cc(F)cc4c3c2CCNC4=O)cc1 [Rucaparib] | – | – | 2000 nM | – | – | – | – | – | – | 438 nM | – | –
CC(C)(C#N)c1cc(Cn2cncn2)cc(C(C)(C)C#N)c1 [Anastrozole] | > 10000 nM | > 10000 nM | > 10000 nM | – | – | > 10000 nM | – | – | – | – | > 10000 nM | –
c1ccc([C@H]2CN3CCSC3=N2)cc1 [Levamisole] | > 10000 nM | > 10000 nM | > 10000 nM | – | > 10000 nM | > 10000 nM | > 10000 nM | > 10000 nM | – | – | – | –
NC(=O)c1cccc2cn(-c3ccc([C@@H]4CCCNC4)cc3)nc12 [Niraparib] | – | – | 1490 nM | 2170 nM | 1920 nM | 2230 nM | 1580 nM | – | 3140 nM | 219 nM | 1800 nM | –
N.N.[Cl][Pt][Cl] [Cisplatin] | 15600 nM | 14800 nM | – | – | – | – | – | – | – | – | 515 nM | –
Cc1ccc(C(=O)N(CCCN)[C@@H](c2oc3cc(Cl)ccc3c(=O)c2Cc2ccccc2)C(C)C)cc1 | – | – | 3.75 nM | 21.8 nM | 20.9 nM | 3.04 nM | 10.9 nM | 24.2 nM | 4.13 nM | 5.2 nM | 3.17 nM | –
CC(C)N(CCCNC(=O)Nc1ccc(C(C)(C)C)cc1)C[C@H]1O[C@@H](n2cc(Br)c3c(N)ncnc32)[C@H](O)[C@@H]1O [SGC0946] | – | – | – | – | – | – | 2540 nM | – | – | – | – | 3660 nM
CC[C@H](CO)Nc1nc(NCc2ccccc2)c2ncn(C(C)C)c2n1 [Seliciclib] | – | – | – | – | – | – | 2380 nM | 1850 nM | – | – | – | –
COc1ccc(S(=O)(=O)Nc2cccnc2Nc2ccc(O)cc2)cc1 [ABT-751] | – | – | 135 nM | 294 nM | 122 nM | 196 nM | 243 nM | 207 nM | 76.1 nM | 381 nM | 283 nM | –
CCC1=C[C@@H]2CN(C1)Cc1c([nH]c3ccccc13)[C@@](C(=O)OC)(c1cc3c(cc1OC)N(C)[C@H]1[C@@](O)(C(=O)OC)[C@H](OC(C)=O)[C@]4(CC)C=CCN5CC[C@]31[C@@H]54)C2 [Vinorelbine] | – | – | 5.98 nM | 5.07 nM | 23.2 nM | 8.26 nM | 7.28 nM | 7.29 nM | 2.95 nM | 3.89 nM | 3.26 nM | 1460 nM
C#Cc1cccc(Nc2ncnc3cc(OCCOC)c(OCCOC)cc23)c1 [Erlotinib] | – | – | – | – | – | – | 1300 nM | – | – | – | – | 3360 nM
CCNC(=O)CCC/C=C\C[C@@H]1[C@@H](/C=C/[C@@H](O)CCc2ccccc2)[C@H](O)C[C@@H]1O [Bimatoprost] | > 5500 nM | > 5500 nM | > 5500 nM | > 5500 nM | > 5500 nM | > 5500 nM | > 5500 nM | > 5500 nM | – | – | > 5500 nM | –
CN(C[C@@H]1COCCO1)S(=O)(=O)Nc1ccc2ccc3ncc(-c4cnn(C)c4)cc3c(=O)c2c1 [MK-2461] | > 10000 nM | – | – | 1770 nM | – | – | – | – | – | – | – | –
Cn1nnc2c(C(N)=O)ncn2c1=O [Temozolomide] | – | – | – | – | – | – | – | – | 1610 nM | 25700 nM | 15800 nM | > 100000 nM
Nc1ccn([C@@H]2O[C@H](CO)[C@@H](O)C2(F)F)c(=O)n1 [Gemcitabine] | – | – | 4.67 nM | 10.9 nM | 2.77 nM | 2.14 nM | 5.17 nM | 15.3 nM | 6.48 nM | 0.73 nM | 3.08 nM | –
CN(C)/N=N/c1[nH]cnc1C(N)=O [Dacarbazine] | – | > 10000 nM | – | > 10000 nM | > 10000 nM | – | – | 2970 nM | – | – | – | > 10000 nM
CN1CCN(CCOc2cc(OC3CCOCC3)c3c(Nc4c(Cl)ccc5c4OCO5)ncnc3c2)CC1 [Saracatinib] | – | – | 2260 nM | 1590 nM | 1590 nM | 3140 nM | 2110 nM | 1200 nM | – | – | 3200 nM | 1620 nM
Cc1cc(Nc2cc(N3CCN(C)CC3)nc(Sc3ccc(NC(=O)C4CC4)cc3)n2)n[nH]1 [Tozasertib] | – | – | 51 nM | 46.3 nM | 636 nM | 193 nM | 349 nM | – | 50.2 nM | – | 283 nM | –
CC[C@@H]1C(=O)N(C)c2cnc(Nc3ccc(C(=O)N[C@H]4CC[C@H](N5CCN(CC6CC6)CC5)CC4)cc3OC)nc2N1C(C)C [Volasertib] | – | – | 24.3 nM | 19.6 nM | 12.6 nM | 28.3 nM | 26.5 nM | 29 nM | 6.44 nM | 36.2 nM | 30 nM | –
O=C(NOCC1CC1)c1ccc(F)c(F)c1Nc1ccc(I)cc1Cl | – | – | 1650 nM | 1310 nM | 3220 nM | 851 nM | 608 nM | 1850 nM | 3940 nM | 153 nM | 2220 nM | –
C[C@]12C=CC(=O)C=C1CC[C@@H]1[C@@H]2C(=O)C[C@@]2(C)[C@H]1CC[C@]2(O)C(=O)CO [Prednisone] | – | > 10000 nM | – | – | – | – | – | – | – | – | – | –
